Measurements from patent publication US6710190B1, “3-heteroarylalkyl substituted gaba analogs” (Warner-Lambert Company, priority 1999, dated 2004).
Read-outs that look alike come from different tables or passages of the source.

Tests used:
[1] = system: carrageenan-induced thermal hyperalgesia in the rat; test: Pain model: carrageenan-induced thermal hyperalgesia in the rat (plantar test); assay type: in vivo; settings: for Pain Model % MPE 1 h: 1 h after oral administration; for Pain Model % MPE 2h: 2 h after oral administration
Procedure: Male Sprague-Dawley rats (180-250 g) were obtained from Bantin and Kingman, (Hull, U.K.). Animals were housed in groups of 6 to 10 under a 12 hour light/dark cycle (lights on at 7 hours, 0 minutes) with food and water ad libitum.
Thermal hyperalgesia was assessed using the rat plantar test (Ugo Basile, Italy) following a modified method of Hargreaves, et al., 1988. Rats were habituated to the apparatus which consisted of three individual perspex boxes on an elevated glass table. A mobile radiant heat source located under the table was focused onto the desired paw and paw withdrawal latencies (PWL) recorded. PWL were taken 3 times for both hind paws of each animal, the mean of which represented baselines for right and left hind paws. At least 5 minutes were allowed between each PWL for an animal. The apparatus was calibrated to give a PWL of approximately 10 seconds. There was an automatic cutoff point of 20 seconds to prevent tissue damage. After baseline PWLs were determined, animals received an intraplantar injection of carrageenan (100 μL of 20 mg/mL) into the right hind paw. PWLs were reassessed following the same protocol as above 2-hour post-carrageenan (this time point represented the start of peak hyperalgesia) to ascertain that hyperalgesia had developed. Test compounds were administered orally (in a volume of 1 mL/kg) at 2.5 hours after carrageenan. PWLs were reassessed at various times after drug administration.

[2] = molecular target: T1, α2δ subunit derived from porcine brain tissue (Sus scrofa, UniProt A0A287BIN3); test: [3H]gabapentin radioligand binding assay (α2δ assay)
T1 construct: the α2δ subunit derived from porcine brain tissue was used; from tissue; host or cells: porcine brain tissue
T1 sequence (A0A287BIN3 25-1109): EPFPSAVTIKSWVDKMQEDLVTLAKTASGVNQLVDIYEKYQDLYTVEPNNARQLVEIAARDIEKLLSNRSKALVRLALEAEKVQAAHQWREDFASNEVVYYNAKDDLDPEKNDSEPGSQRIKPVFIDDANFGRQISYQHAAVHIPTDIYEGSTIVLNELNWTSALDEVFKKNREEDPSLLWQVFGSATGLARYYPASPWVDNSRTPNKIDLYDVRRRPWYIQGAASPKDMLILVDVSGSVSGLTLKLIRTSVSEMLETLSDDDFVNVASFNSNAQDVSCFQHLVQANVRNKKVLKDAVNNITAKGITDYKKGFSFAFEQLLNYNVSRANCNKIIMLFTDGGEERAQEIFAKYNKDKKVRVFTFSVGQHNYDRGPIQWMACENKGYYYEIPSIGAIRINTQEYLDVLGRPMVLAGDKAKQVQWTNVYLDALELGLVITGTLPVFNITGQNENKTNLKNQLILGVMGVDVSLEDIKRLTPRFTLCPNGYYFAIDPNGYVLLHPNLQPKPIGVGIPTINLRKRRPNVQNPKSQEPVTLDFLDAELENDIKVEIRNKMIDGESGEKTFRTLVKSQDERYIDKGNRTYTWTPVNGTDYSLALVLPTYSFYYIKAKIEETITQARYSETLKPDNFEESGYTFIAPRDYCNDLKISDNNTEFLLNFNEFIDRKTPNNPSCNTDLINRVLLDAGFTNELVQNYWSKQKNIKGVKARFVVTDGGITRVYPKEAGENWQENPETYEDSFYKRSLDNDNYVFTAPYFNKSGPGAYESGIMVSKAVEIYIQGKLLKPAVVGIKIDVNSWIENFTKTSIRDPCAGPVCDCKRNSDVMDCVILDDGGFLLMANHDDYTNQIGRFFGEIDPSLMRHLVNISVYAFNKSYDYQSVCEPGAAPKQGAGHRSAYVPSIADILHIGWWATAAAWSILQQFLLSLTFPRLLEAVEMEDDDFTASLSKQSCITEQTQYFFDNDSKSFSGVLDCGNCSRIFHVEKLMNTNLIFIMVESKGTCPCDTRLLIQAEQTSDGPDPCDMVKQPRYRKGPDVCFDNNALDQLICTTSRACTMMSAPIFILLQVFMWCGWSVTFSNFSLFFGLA

[3] = system: sound-induced tonic seizures in DBA/2 mice; test: DBA2 mouse model: prevention of audiogenic seizures in DBA/2 mice; assay type: in vivo; set-up: concentration or dose not given beside the values; settings: for DBA2 Mouse Model % Protect (1h): 1h after oral dosing; for DBA2 Mouse Model % Protect (2h): 2h after oral dosing
Procedure: All procedures were carried out in compliance with the NIH Guide for the Care and Use of Laboratory Animals under a protocol approved by the Parke-Davis Animal Use Committee. Male DBA/2 mice, 3 to 4 weeks old, were obtained from Jackson Laboratories, Bar Harbour, Me. Immediately before anticonvulsant testing, mice were placed upon a wire mesh, 4 inches square suspended from a steel rod. The square was slowly inverted through 180 degrees and mice observed for 30 seconds. Any mouse falling from the wire mesh was scored as ataxic.
Mice were placed into an enclosed acrylic plastic chamber (21 cm height, approximately 30 cm diameter) with a high-frequency speaker (4 cm diameter) in the center of the top lid. An audio signal generator (Protek model B-180) was used to produce a continuous sinusoidal tone that was swept linearly in frequency between 8 kHz and 16 kHz once each 10 msec. The average sound pressure level (SPL) during stimulation was approximately 100 dB at the floor of the chamber. Mice were placed within the chamber and allowed to acclimatize for 1 minute. DBA/2 mice in the vehicle-treated group responded to the sound stimulus (applied until tonic extension occurred, or for a maximum of 60 seconds) with a characteristic seizure sequence consisting of wild running followed by clonic seizures, and later by tonic extension, and finally by respiratory arrest and death in 80% or more of the mice. In vehicle-treated mice, the entire sequence of seizures to respiratory arrest lasts approximately 15 to 20 seconds.
The incidence of all the seizure phases in the drug-treated and vehicle-treated mice was recorded, and the occurrence of tonic seizures were used for calculating anticonvulsant ED50 values by probit analysis. Mice were used only once for testing at each dose point. […] All drugs in the present study were dissolved in distilled water and given by oral gavage in a volume of 10 mL/kg of body weight. compounds that are insoluble will be suspended in 1% carboxymethocellulose. Doses are expressed as weight of the active drug moiety.

Row | Structure (SMILES) | Pain Model % MPE 1 h [1] | Pain Model % MPE 2h [1] | IC50 ([2]; read-out: α2δ Assay IC50) | DBA2 Mouse Model % Protect (1h) [3] | DBA2 Mouse Model % Protect (2h) [3] | IC50 [2]
1 | NCC(CC(=O)O)Cc1cccs1 (stereo not shown) | 31.9% | 18.1% | 2.67 µM | 20% | 40% | –
2 | NCC(CC(=O)O)Cc1ccco1 (stereo not shown) | 61.6% | 24.9% | – | 0% | 20% | 0.421 µM
3 | NCC(CC(=O)O)Cc1ccsc1 (stereo not shown) | – | – | 0.831 µM | 40% | 60% | –
